Data reported in patent publication US11584742B2 (MASARYKOVA UNIVERZITA, priority 2018, dated 2023).

Key:
[1] = target: T1, MRE11 (Homo sapiens, UniProt P49959); assay: HTS nuclease assay (cleavage of CY5/BBQ-quenched 5' overhang DNA substrate); type: biochemical; details: in vitro HTS nuclease assay; 18 nM MRE11, 40 nM DNA substrate; analysis at t=4 h
T1 sequence (P49959 1-708): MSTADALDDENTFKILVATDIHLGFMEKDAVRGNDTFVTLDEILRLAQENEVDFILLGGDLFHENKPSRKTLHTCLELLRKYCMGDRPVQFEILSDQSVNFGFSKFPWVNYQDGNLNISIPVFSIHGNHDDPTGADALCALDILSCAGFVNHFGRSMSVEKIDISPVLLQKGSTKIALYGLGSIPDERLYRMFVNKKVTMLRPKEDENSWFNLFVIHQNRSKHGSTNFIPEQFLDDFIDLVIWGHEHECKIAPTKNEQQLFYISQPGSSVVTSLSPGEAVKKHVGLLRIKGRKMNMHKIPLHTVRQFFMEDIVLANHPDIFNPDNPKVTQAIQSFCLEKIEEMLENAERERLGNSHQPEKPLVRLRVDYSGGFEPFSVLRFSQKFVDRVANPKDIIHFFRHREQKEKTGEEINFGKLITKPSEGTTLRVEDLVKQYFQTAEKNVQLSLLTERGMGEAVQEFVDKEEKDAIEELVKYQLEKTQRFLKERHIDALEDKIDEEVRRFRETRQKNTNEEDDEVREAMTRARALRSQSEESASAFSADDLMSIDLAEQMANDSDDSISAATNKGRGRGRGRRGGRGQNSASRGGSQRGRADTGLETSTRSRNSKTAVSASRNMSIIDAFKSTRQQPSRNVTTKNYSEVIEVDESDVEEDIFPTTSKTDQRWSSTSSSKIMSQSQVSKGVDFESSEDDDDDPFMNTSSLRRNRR
Experimental: DNA Substrate Preparation
The DNA substrate is prepared by mixing the oligonucleotides listed below in a 1:1 ratio to reach a final concentration of 6 μM in a buffer containing 50 mM Tris pH 7.5, 100 mM NaCl and 8 mM MgCl2.
This substrate is a 5′ overhang, which is a preferred substrate of MRE11. […] The fluorescence increases upon substrate cleavage by MRE11, when separation of the two labels occur.
The conditions of the assay are as follows:
Total reaction volume: 5 μL
DNA substrate concentration in the reaction: 40 nM
Inhibitor concentration range tested: 7 nM-50 μM
Each plate contains a series of high and low signal control wells, where no compound is added:
High signal: MRE11+DNA substrate
Low signal: DNA substrate only
These are used during data evaluation.
Two extra assay controls:
1) To check whether unwinding of DNA by the compounds alone occurs.
The DNA substrate [CY5+BBQ(650)] is mixed with the compounds with no protein present.
The CY5 single stranded oligo is mixed with the compounds with no protein present.
The layout of the plates is created by the in-house software (CZ-Openscreen Prague) and this information is transferred to the robotic HTS station.
The reaction is started by the addition of DNA and the reaction time is counted from that moment, including a 15 min delay. Ten timepoints are measured:
The assay data analysis was performed at t=4 h. This corresponds to the time when the reaction is close to its maximum.
The data analysis was performed using the in-house software to obtain IC50 for each compound.

[2] = tested on: DR-GFP U2OS cells; assay: HR assay (GFP fluorescence after I-SceI transfection, flow cytometry); type: cell-based; details: Homo sapiens, inhibitor at 25 μM, 72 hours after transfection
Experimental: DR-GFP U2OS cells (Methods in Molecular Biology 2012, 920, 379.) were transfected with 2.5 μg of I-SceI-expressing pCAGGS vector and treated with the inhibitors at 25 μM concentration. 72 hours after the transfection, the cells were trypsinized and resuspended in 3% BSA in PBS. GFP fluorescence detection was carried out using a BD FACSVerse flow cytometer and data analyzed with FlowJo software.

Compound	IC50 [1]	inhibition at 25 µM [2]
N#C/C(=C\c1ccc(O)c(O)c1)C(=O)Nc1nc(-c2cccc(C#N)c2)cs1 [Preparative Example 180, (E)-2-cyano-N-(4-(3-cyanophenyl)thiazol-2-yl)-3-(3,4-dihydroxyphenyl)acrylamide]	< 2000 nM	50 to 75%
CN(C)C(=O)c1ccc(-c2csc(NC(=O)/C(C#N)=C/c3ccc(O)c(O)c3)n2)cc1 [Preparative Example 181, (E)-4(2-(2-cyano-3-(3,4-dihydroxyphenyl)acrylamido)thiazol-4-yl)-N,N-dimethylbenzamide]	< 2000 nM	< 50%
CC(C)(O)c1ccc(-c2csc(NC(=O)/C(C#N)=C/c3ccc(O)c(O)c3)n2)cc1 [Preparative Example 182, (E)-2-cyano-3-(3,4-dihydroxyphenyl)-N-(4-(4-(2-hydroxypropan-2-yl)phenyl)thiazol-2-yl)acrylamide]	< 2000 nM	50 to 75%
N#C/C(=C\c1ccc(O)c(O)c1)C(=O)Nc1nc(-c2ccc(C#N)s2)cs1 [Preparative Example 183, (E)-2-cyano-N-(4-(5-cyanothiophen-2-yl)thiazol-2-yl)-3-(3,4-dihydroxyphenyl)acrylamide]	< 2000 nM	< 50%
N#C/C(=C\c1ccc(O)c(O)c1)C(=O)Nc1nc(-c2cc(F)cc(F)c2)cs1 [Preparative Example 185, (E)-2-cyano-N-(4-(3,5-difluorophenyl)thiazol-2-yl)-3-(3,4-dihydroxyphenyl)acrylamide]	< 2000 nM	50 to 75%
N#C/C(=C\c1ccc(O)c(O)c1)C(=O)Nc1nc(-c2cccnn2)cs1 [Preparative Example 186]	< 2000 nM	< 50%
N#C/C(=C\c1ccc(O)c(O)c1)C(=O)Nc1nc(-c2ccc(F)cc2)cs1 [Preparative Example 187, (E)-2-cyano-3-(3,4-dihydroxyphenyl)-N-(4-(4-fluorophenyl)thiazol-2-yl)acrylamide]	< 2000 nM	> 75%
N#C/C(=C\c1ccc(O)c(O)c1)C(=O)Nc1nc(-c2ccncc2)cs1 [Preparative Example 188, (E)-2-cyano-3-(3,4-dihydroxyphenyl)-N-(4-(pyridin-4-yl)thiazol-2-yl)acrylamide]	< 2000 nM	50 to 75%
COC(=O)c1ccc(-c2csc(NC(=O)/C(C#N)=C/c3ccc(O)c(O)c3)n2)cc1 [Preparative Example 189, Methyl (E)-4-(2-(2-cyano-3-(3,4-dihydroxyphenyl)acrylamido)thiazol-4-yl)benzoate]	< 2000 nM	50 to 75%
N#C/C(=C\c1ccc(O)c(O)c1)C(=O)Nc1nc2c(s1)CCCC2 [Preparative Example 191]	< 2000 nM	< 50%
Cc1sc(NC(=O)/C(C#N)=C/c2ccc(O)c(O)c2)nc1-c1ccccc1 [Preparative Example 194, (E)-2-cyano-3-(3,4-dihydroxyphenyl)-N-(5-methyl-4-phenylthiazol-2-yl)acrylamide]	< 2000 nM	50 to 75%
N#C/C(=C\c1ccc(O)c(O)c1)C(=O)Nc1nc(-c2ccccc2)c(Cl)s1 [Preparative Example 195, (E)-N-(5-chloro-4-phenylthiazol-2-yl)-2-cyano-3-(3,4-dihydroxyphenyl)acrylamide]	< 2000 nM	50 to 75%

Further lines, with some results ahead:

IC50 [1]	Compound	inhibition at 25 µM [2]
< 2000 nM	N#C/C(=C\c1ccc(O)c(O)c1)C(=O)Nc1nc(-c2ccccc2)c(Br)s1 [Preparative Example 196, (E)-N-(5-bromo-4-phenylthiazol-2-yl)-2-cyano-3-(3,4-dihydroxyphenyl)acrylamide]	50 to 75%
< 2000 nM	C#Cc1ccc(-c2csc(NC(=O)/C(C#N)=C/c3ccc(O)c(O)c3)n2)cc1 [Preparative Example 197, (E)-2-cyano-3-(3,4-dihydroxyphenyl)-N-(4-(4-ethynylphenyl)thiazol-2-yl)acrylamide]	> 75%
< 2000 nM	COc1ccc(-c2csc(NC(=O)/C(C#N)=C/c3ccc(O)c(O)c3)n2)cc1C1CC1 [Preparative Example 198, (E)-2-cyano-N-(4-(3-cyclopropyl-4-methoxyphenyl)thiazol-2-yl)-3-(3,4-dihydroxyphenyl)acrylamide]	> 75%
< 2000 nM	CC(C)(C)c1csc(NC(=O)/C(C#N)=C/c2ccc(O)c(O)c2)n1 [Preparative Example 199, (E)-N-(4-(tert-butyl)thiazol-2-yl)-2-cyano-3-(3,4-dihydroxyphenyl)acrylamide]	50 to 75%
2000 to 10000 nM	N#C/C(=C\c1cnc(O)c(O)c1)C(=O)Nc1nc(-c2ccccc2)cs1 [Preparative Example 200, (E)-2-cyano-3-(5,6-dihydroxypyridin-3-yl)-N-(4-phenylthiazol-2-yl)acrylamide]	< 50%
2000 to 10000 nM	N#C/C(=C\c1ccc(O)c(Cl)c1)C(=O)Nc1nc(-c2ccccc2)cs1 [Preparative Example 201, (E)-3-(3-chloro-4-hydroxyphenyl)-2-cyano-N-(4-phenylthiazol-2-yl)acrylamide]	50 to 75%
2000 to 10000 nM	COc1cc(/C=C(\C#N)C(=O)Nc2nc(-c3ccccc3)cs2)cc(F)c1O [Preparative Example 203, (E)-2-cyano-3-(3-fluoro-4-hydroxy-5-methoxyphenyl)-N-(4-phenylthiazol-2-yl)acrylamide]	< 50%
2000 to 10000 nM	N#C/C(=C\c1ccc(C(=O)O)cc1)C(=O)Nc1nc(-c2ccccc2)cs1 [Preparative Example 204, (E)-4-(2-cyano-3-oxo-3-((4-phenylthiazol-2-yl)amino)prop-1-en-1-yl)benzoic acid]	< 50%
2000 to 10000 nM	N#C/C(=C\c1ccc2cn[nH]c2c1)C(=O)Nc1nc(-c2ccccc2)cs1 [Preparative Example 205, (E)-2-cyano-3-(1H-indazol-6-yl)-N-(4-phenylthiazol-2-yl)acrylamide]	< 50%
2000 to 10000 nM	N#C/C(=C\c1ccccc1F)C(=O)Nc1nc(-c2ccccc2)cs1 [Preparative Example 206, (E)-2-cyano-3-(2-fluorophenyl)-N-(4-phenylthiazol-2-yl)acrylamide]	< 50%
2000 to 10000 nM	CC(=O)Nc1cccc(/C=C(\C#N)C(=O)Nc2nc(-c3ccccc3)cs2)c1 [Preparative Example 207, 3-(3-acetamidophenyl)-2-cyano-N-(4-phenylthiazol-2-yl)acrylamide]	50 to 75%
10000 to 90000 nM	N#C/C(=C\c1ccc(O)c([N+](=O)[O-])c1)C(=O)Nc1nc(-c2ccccc2)cs1 [Preparative Example 208, (E)-2-cyano-3-(4-hydroxy-3-nitrophenyl)-N-(4-phenylthiazol-2-yl)acrylamide]	50 to 75%
10000 to 90000 nM	N#C/C(=C\c1ccc([N+](=O)[O-])cc1)C(=O)Nc1nc(-c2ccccc2)cs1 [Preparative Example 209, (E)-2-cyano-3-(4-nitrophenyl)-N-(4-phenylthiazol-2-yl)acrylamide]	50 to 75%
10000 to 90000 nM	N#C/C(=C\c1cccc(C(=O)O)c1)C(=O)Nc1nc(-c2ccccc2)cs1 [Preparative Example 210, (E)-3-(2-cyano-3-oxo-3-((4-phenylthiazol-2-yl)amino)prop-1-en-1-yl)benzoic acid]	< 50%
10000 to 90000 nM	N#C/C(=C\c1ccc(O)c(-c2ccccc2)c1)C(=O)Nc1nc(-c2ccccc2)cs1 [Preparative Example 211, (E)-2-cyano-3-(6-hydroxy-[1,1′-biphenyl]-3-yl)-N-(4-phenylthiazol-2-yl)acrylamide]	< 50%
